Results reported in patent US8304443B2, “Indazole derivatives” (Asahi Kasei Pharma Corporation, priority 2008, dated 2012).

Tests used:
[1] = system: rat under pentobarbital anesthesia; assay: Test example 9: effect on blood pressure and heart rate of a rat under pentobarbital anesthesia; type: in vivo; conditions: male SD rat, 3 mg/kg intravenous bolus; greatest change of mean blood pressure relative to before administration; mean ± standard deviation
Procedure: After measuring blood pressure and heart rate of a rat under pentobarbital anesthesia, an effect of intravenous bolus administration of a test compound on blood pressure and heart rate can be determined. To a male SD rat (Japan SLC Inc.), sodium pentobarbital (Tokyo Chemical Industry Co., Ltd.) is intraperitoneally administered for induction of anesthesia (50 mg/kg). As maintenance anesthetics, sodium pentobarbital is subcutaneously administered (25 mg/kg). Left femoral vein is exposed and stripped, and then a polyethylene tube SP10 (connected to a three-way stopcock via ¼ vein needle) which has been filled with physiological saline is inserted and left in the vein.
Left medial femoral region is cut to expose and strip the femoral artery, and then a polyethylene tube (SP31, connected to a three-way stopcock via 22 G injection needle by TERUMO Corporation) which has been filled with heparin physiological saline is inserted and connected to a pressure transducer. Blood pressure is measured from the pressure transducer by using a modified pressure amplifier (AP-641 G, Nihon Kohden Corporation). Heart rate is measured by using the Heart rate Counter (AT-601 g, Nihon Kohden Corporation) while having the pulse wave of the blood pressure as a trigger. The blood pressure, mean blood pressure and heart rate are transmitted to the data recorder for recordation. In addition, the mean blood pressure is recorded using a modified pressure amplifier (AP-641 G) according to the equation of {diastolic blood pressure+(systolic blood pressure−diastolic blood pressure)/3}.
Blood pressure and heart rate measurement is started, and after confirming that each value remains almost constant, the test compound (3 mg/kg) is administered to the left femoral vein for 30 seconds. Specifically, the test compound with 3 mg/mL concentration is bolus administered at the administration dose of 1 mL/kg. Relative value (%) at each time point compared to the mean blood pressure and the heart rate before the administration is obtained for each individual. […]

[2] = molecular target: T1, human β3 adrenergic receptor (Homo sapiens, UniProt P13945); assay: Test example 1-B: human β3 adrenergic receptor agonist activity (cAMP-Screen, 96-well); type: cell-based; conditions: for Emax: 0.5 h, read-out: β3 receptor I.A.; for EC50: Table 4, Test example 1-B, CHO cells with human β3 gene, cAMP
T1 construct: used as a probe to obtain the full length human β3 gene from a human genomic library (Clonetech); expressed in transfected cells; host or cells: CHO (Chinese hamster ovary) cells, pcDNA3, geneticin-selected
T1 sequence (P13945 whole entry): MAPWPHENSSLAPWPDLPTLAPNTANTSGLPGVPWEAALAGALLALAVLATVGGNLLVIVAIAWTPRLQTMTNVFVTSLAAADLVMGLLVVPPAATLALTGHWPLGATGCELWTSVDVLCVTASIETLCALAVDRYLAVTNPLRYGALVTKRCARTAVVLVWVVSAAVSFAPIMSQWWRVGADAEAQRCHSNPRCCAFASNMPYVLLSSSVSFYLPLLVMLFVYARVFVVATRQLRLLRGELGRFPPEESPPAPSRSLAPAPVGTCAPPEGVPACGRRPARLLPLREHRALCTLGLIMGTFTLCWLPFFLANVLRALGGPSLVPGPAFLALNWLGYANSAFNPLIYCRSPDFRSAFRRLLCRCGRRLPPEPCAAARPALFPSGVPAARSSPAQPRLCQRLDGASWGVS
Procedure: Human β3 adrenergic receptor agonist activity is determined using CHO (Chinese hamster ovary) cells transfected with pcDNA3 (Invitrogen) to which human β3 gene has been inserted. […] This human β3 cDNA fragment is used as a probe to obtain the full length human β3 gene from a human genomic library (Clonetech). The above cells are cultured in a Ham's F-12 medium containing 10% fetal bovine serum and 400 μg/mL geneticin (Invitrogen). After seeding these cells into a 96-well plate (2×10^4 cells/well) and culturing them for about 20 hours, they are allowed to stand in a serum-free Ham's F-12 medium (80 μL) for 15 minutes. The test compound is first dissolved in DMSO, serially diluted with Ham's F-12 comprising 100 mmol/L HEPES and 1 mmol/L isobutylmethylxanthine, and then 20 μL of the solution is added to the cells. After the cells are cultured for 30 minutes, the medium is removed, followed by addition of assay/lysis buffer (0.1 ml) included in cAMP-Screen Kit (manufactured by Applied Biosystems). The cells are incubated for 30 minutes at 37° C. The resulting cell lysate is determined to cAMP quantitation by using cAMP-Screen kit described above.

Row | Emax [2] [%] | EC50 [2] [nM] | SMILES | increase in MBP (%) [1] [%]
1 | 77 | 15 | CS(=O)(=O)Nc1cccc([C@@H](O)CNCCOc2ccc3c(C4CC4)n[nH]c3c2)c1 [Example 1, (R)—N-(3-(1-Hydroxy-2-(2-(3-cyclopropylindazol-6-yloxy)ethylamino)ethyl)phenyl)methanesulfonamide] | 2.7 ± 0.5
2 | 68 | 56 | CS(=O)(=O)Nc1cccc([C@@H](O)CNCCOc2ccc3c(C4CCC4)n[nH]c3c2)c1 [Example 2, (R)—N-(3-(1-Hydroxy-2-(2-(3-cyclobutylindazol-6-yloxy)ethylamino)ethyl)phenyl)methanesulfonamide] | 4.0 ± 2.6
